# From patent publication US6713491B2, “Heterocyclic derivatives” (priority 1999, dated 2004)
# Columns and labels:
# mice = test: tolerability on administration to mice; type: in vivo; details: pharmacological active doses
# [1] = test system: kainic acid (kainate) receptor; test: selectivity study at other ionotropic excitatory amino acid receptors: kainate; type: binding
# Protocol: (§1) The potent and selective action of the compound of the invention at the strychnine-insensitive glycine binding site present on the NMDA receptor complex may be readily determined using conventional test procedures. Thus the ability to bind at the strychnine insensitive glycine binding site was determined using the procedure of Kishimoto H et al., J Neurochem 1981, 37, 1015-1024. The selectivity of the action of compounds of the invention for the strychnine insensitive glycine site was confirmed in studies at other ionotropic known excitatory amino acid receptors.
# [2] = biological target: T1, strychnine insensitive glycine binding site associated with the NMDA receptor complex (Rattus norvegicus, UniProt P35439); test: binding at the strychnine insensitive glycine binding site (procedure of Kishimoto H et al.)
# T1 construct: from tissue; host or cells: rat CNS membranes (inferred from the cited procedure)
# Protocol: as §1
# [3] = test system: a-amino-3-hydroxy-5-methyl-4-isoxazole-proprionic acid (AMPA) receptor; test: selectivity study at other ionotropic excitatory amino acid receptors: AMPA; type: binding
# Protocol: as §1
# NMDA binding site = test: selectivity study at other ionotropic excitatory amino acid receptors: NMDA binding site
# Protocol: as §1
structure (smiles),measurement,setting,value
"CNC[C@H](O)[C@@H](O)[C@H](O)[C@H](O)CO.O=C(O)C1CC(=C2CCN(c3ccccc3)C2=O)c2ccc(Cl)cc2N1 (single isomer, unassigned; enantiomer a) [compound of the invention, meglumine salt of enantiomer A of 7-chloro-4-(2-oxo-1-phenyl-3-pyrrolidinylidene)-1,2,3,4-tetrahydro-2-quinolinecarboxylic acid]",untoward effects,mice,No untoward effects
same,affinity for the kainic acid (kainate) receptor,[1],little or no affinity
same,antagonism at the strychnine insensitive glycine binding site,[2],potent antagonist
same,affinity for the AMPA receptor,[3],little or no affinity
same,affinity at the NMDA binding site,NMDA binding site,little or no affinity
